The values that follow are results of earlier work, collected in patent US6689382B2, “Soft shell gelatin capsules containing non-steroidal anti-inflammatories” (priority 2002, dated 2004).

Each structure is given as a SMILES string.

For one data set, the system named is COX-2 and COX-1. The note with it: for ratio COX-2 IC50 divided by COX-1 IC50: in vitro, the smaller the ratio the more selective for COX-2; for selectivity for COX-1 and COX-2 (in words): conventional 1st generation NSAIDs.
The conditions of data set [1]: clinical trials.

In the case of `CN1C(C(=O)Nc2ccccn2)=C(O)c2ccccc2S1(=O)=O` [piroxicam], the “ratio COX-2 IC50 divided by COX-1 IC50” value in the data set with COX-2 and COX-1 was “about 30”. For `COc1ccc2cc([C@H](C)C(=O)O)ccc2c1` [naproxen], the “selectivity for COX-1 and COX-2 (in words)” value (from here on “selectivity”) with COX-2 and COX-1 is on record as “essentially non-selective”.

With `COc1ccc2c(c1)c(CC(=O)O)c(C)n2C(=O)c1ccc(Cl)cc1` [indomethacin], the “ratio COX-2 IC50 divided by COX-1 IC50” value in the data set with COX-2 and COX-1 was “about 30”.

In the case of `Cc1ccc(-c2cc(C(F)(F)F)nn2-c2ccc(S(N)(=O)=O)cc2)cc1` [celecoxib, Celecoxib], in data set [1], the anti-inflammatory activity entry was “effective anti-inflammatory activity”. Also, in data set [1] (compared to placebo), the gastrointestinal adverse effects entry was “virtually no gastrointestinal adverse effects”. Regarding `CC(C)Cc1ccc(C(C)C(=O)O)cc1` (stereo not shown) [ibuprofen], in the data set with COX-2 and COX-1, the “selectivity” value is listed as “essentially non-selective”. On to `CC(C(=O)O)c1cccc(C(=O)c2ccccc2)c1` (stereo not shown) [ketoprofen], for which, in the data set with COX-2 and COX-1, the “selectivity” value is recorded as “relatively COX-1 selective”.
